# Data: US6858396B2, “Positively charged non-natural amino acids, methods of making and using thereof in peptides” (Medical University of South Carolina, priority 1996, dated 2005)
# Like-named read-outs stand apart in the source and are kept apart here. Square brackets hold non-standard residues; d marks the D form. Ends that are not written are not given here. Peptide text beside a SMILES is read from it. hLys = NCCCCC[C@H](N)C(=O)O
# What was measured:
# [1] = target: T1, Thrombin (Homo sapiens, UniProt P00734); assay: Thrombin inhibition (Ki); format: biochemical
# Description: (§1) Thrombin is a major control point of the blood coagulation cascade, and inhibitors are of interest to combat thrombotic diseases.
# [2] = Description: as §1
# [3] = target: T2, Trypsin (Bos taurus, UniProt P00760); assay: Trypsin inhibition (Ki); format: biochemical; conditions: at its limit of solubility in water
# T2 construct: gene PRSS1
# T2 sequence (P00760 24-246): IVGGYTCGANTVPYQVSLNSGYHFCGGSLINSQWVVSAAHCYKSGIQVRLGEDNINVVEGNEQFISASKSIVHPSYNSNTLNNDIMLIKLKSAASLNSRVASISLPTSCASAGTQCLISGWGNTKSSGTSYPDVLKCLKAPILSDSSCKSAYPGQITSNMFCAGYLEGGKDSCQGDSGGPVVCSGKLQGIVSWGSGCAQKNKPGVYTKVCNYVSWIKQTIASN
# Description: as §1
# [4] = tested on: NT receptor; assay: Hypothermia in rats after I.V. or I.C. injection of NT(8-13) derivatives (brain uptake across the BBB); format: in vivo
# Description: Peptides 36, 39, 42, and 45 are NT(8-13) with non-natural amino acids 32-35 (Scheme L), respectively, were substituted for the Arg^(8) residue.
# [5] = target: T1, Thrombin; assay: Competitive inhibition of thrombin in vitro, chromogenic substrate (D)-Phe-Pip-Arg-p-NA; format: biochemical; design: 0.01 units of human thrombin (Sigma); purchased Sigma; conditions: for % Inhibition: peptide 20 μM, 0.01 units human thrombin, pH 7.5, 25° C.
# Procedure: A (D)-Phe-Pro-Arg-Ala analogue containing non-natural amino acid (7) (as the racemic mixture in the side chain) in place of Arg was synthesized and compared to (D)-Phe-Pro-Arg-Ala as a competitive inhibitor of thrombin in vitro. The molecule referred to as 7 is Formula I, R1=[…], R2=H, R3=H, R13=H and N=4. The stereochemistry at C2 is racemic (equal D- and L-forms present).
# Peptides were incubated individually at 20 μM concentrations with 0.01 units of human thrombin (Sigma) and saturating concentrations of the chromogenic substrate (D)-Phe-Pip-Arg-p-NA at pH 7.5 and 25° C. in 0.1 M phosphate buffer containing 0.2 M NaCl and 0.5% PEG (5c). Initial rates were determined by monitoring formation of p-NA at 405 nm in the absence and presence of the indicated peptides to determine % inhibition. Standard errors were<5%.
# [6] = in vivo; cited from earlier work
molecule,measurement,setting,value
"N=C(N)NCCC[C@H](N)C(=O)O [Arg, arginine, reference compound]",Ki,"[1]; as the N-α-DNS, —COO-Pip derivatives, read-out: Thrombin K12",83 ± 24 nM
same,RP-HPLC Retention Time,[2],20.9 ± 0.02 min
"CCNC(=N)NCCC[C@H](N)C(=O)O [Compound 31, N(γ)ethyl-Arg]",Ki,[1],190 ± 66 nM
same,increase in thrombin/trypsin Ki selectivity ratio compared with arginine,"[1]; KI (Thrombin/Trypsin), 31 versus arginine",≥ 60 fold
same,lipophilicity based on RP-HPLC,[2]; compared with arginine,more lipophilic
same,RP-HPLC Retention Time,"[2]; measure of lipophilicity, as the N-α-DNS, —COO-Pip derivatives",23.1 ± 0.01 min
same,inhibition of trypsin at limit of solubility in water,[3],does not inhibit trypsin
CC[C@H](C)[C@H](NC(=O)[C@H](Cc1ccc(O)cc1)NC(=O)[C@@H]1CCCN1C(=O)[C@H](CCCNC(=N)N)NC(=O)[C@@H](N)CCCCCN)C(=O)N[C@@H](CC(C)C)C(=O)O [Peptide 36] (H-[hLys]RPYIL-OH),improvement upon the previously evaluated peptides NT-1 and NT66L,[4]; brain uptake,≥ 300 fold
same,uptake into brain,"[4]; rats, single 0.2-mg I.V. dose versus I.C., estimated by potency ratios (FIG. 1B)",roughly 28%
(D)-Phe-Pro-7-Ala,% Inhibition,[5],82%
same,better competitive inhibitor than the parent peptide,[5]; relative to (D)-Phe-Pro-Arg-Ala,~25%
(D)-Phe-Pro-Arg-Ala ([dF]PRA) [reference compound],% Inhibition,[5],65%
"Arg^(8)-Arg^(9)-Pro^(10)-Tyr^(11)-Ile^(12)-Leu^(13)-COOH [NT(8-13), reference compound]",crossing of the blood brain barrier,[6],does not cross the blood brain barrier
same,activity (hypothermia) / uptake into brain after I.V. injection,"[4]; rats, I.V., 1.0 mg doses (FIG. 1A)",no activity
